According to patent US20250361243A1, “Compounds and Pharmaceutical Compositions Useful for Managing Sickle Cell Disease and Conditions Related Thereto” (Emory University, priority 2022, published 2025):
Read-outs that look alike come from different tables or passages of the source.

Columns and labels:
Type in all cases: cell-based
Human RBC = test: Imaging-based anti-sickling assay, human RBC
Source text: (§1) An imaging assay utilizing automated microscopy and customized algorithms was used to detect sickled or normal (round shaped) RBCs. The assay is capable of discovering anti-sickling agents with physiologically relevant oxygen affinity. The assay uses native mouse or human RBCs, enabling one to identify a broader spectrum of agents and is not restricted to compounds that require direct interaction (e.g., with purified hemoglobin). Thus, in contrast to hemoglobin binding assays, this approach allows for the identification of additional classes of anti-sickling agents that modulate pathways affecting RBC sickling. Compounds resulting from the experiments are also useful for investigating SCD pathophysiology.
(§2) The imaging-based protocol that can distinguish sickled vs normal (round) phenotype of intact RBCs originating from genetically engineered mice expressing human hemoglobin genes (the HbSS Townes knock-in sickle mice), or 2) SCD patients. The imaging was conducted using a BioTek Cytation™ cell imaging multimode reader and software to detect sickled or normal round-shaped phenotype of RBCs with negative control (vehicle treatment) and a positive control, 5-hydroxymethylfurfural (5-HMF).

ss Mouse RBC = test: Imaging-based anti-sickling assay, ss mouse RBC; conditions: read-out: Anti-sickling activity (EC50; μM) ss Mouse RBC
Source text: as §1, §2

RBCs = test: Anti-sickling activity normalized to 5 mM 5-HMF (Table 2); conditions: for EC50: read-out: EC50 for anti-sickling activity (uM, normalized to positive control of 5 mM 5-HMF)
Source text: as §1, §2

[1] = Homo sapiens; read-out: Anti-sickling activity (EC50; μM) Human RBC

Compound	EC50 (Human RBC; [1]) [µM]	EC50 (ss Mouse RBC) [µM]	also measured
O=C1C=CC(=O)N1c1cccc(Cl)c1 [HDYB-1, 1-(3-chlorophenyl)-1H-pyrrole-2,5-dione]	6.3	5	
Cc1ccc(N2C(=O)C=CC2=O)cc1Cl [HDYB-2, 1-(3-chloro-4-methylphenyl)-1H-pyrrole-2,5-dione]	19	15	
O=C1C=CC(=O)N1c1cccc(C(F)(F)F)c1 [HDYB-3, 1-(3-(trifluoromethyl)phenyl)-1H-pyrrole-2,5-dione]	12	12	
O=C1C=CC(=O)N1c1ccccc1 [HDYB-5, 1-phenyl-1H-pyrrole-2,5-dione]	17	21	
O=C1C=CC(=O)N1c1ccc(Br)cc1Cl [HDYB-6, 1-(4-bromo-2-chlorophenyl)-1H-pyrrole-2,5-dione]	12	20	
Cc1cc(Cl)cc(-c2ccccc2)c1N1C(=O)C=CC1=O [HDYB-8, 1-(5-chloro-3-methyl-[1,1′-biphenyl]-2-yl)-1H-pyrrole-2,5-dione]	< 100	< 100	
O=C1C=CC(=O)N1CCCCN1C(=O)C=CC1=O [HDYB-9]	78	29	
O=C1C=CC(=O)N1c1cccc(N2C(=O)C=CC2=O)c1 [HDYB-10]	57	78	
O=C1C=C(Nc2ccccc2)C(=O)N1c1ccccc1 [HDYB-11]	< 100	< 100	
Cc1ccc(Cl)cc1N1C(=O)C=CC1=O [HDYB-12, 1-(5-chloro-2-methylphenyl)-1H-pyrrole-2,5-dione]	12	16	
O=C1C=CC(=O)N1c1ccc(Br)c(Cl)c1 [HDYB-14, 1-(4-bromo-3-chlorophenyl)-1H-pyrrole-2,5-dione]	23	27	
O=C1C=CC(=O)N1c1cccnc1 [HDYB-15]	< 100	< 100	
Cc1ccc(N2C(=O)C=CC2=O)nc1 [HDYB-16]	< 100	< 100	
O=C1C=CC(=O)N1c1cnc2ccccc2c1 [HDYB-17]	< 100	< 100	
O=C1C(=O)N(Cc2ccccc2)c2ccc(Cl)cc21 [HDYB-19]	25	27	
O=C1C(=O)N(Cc2ccc(C(F)(F)F)cc2)c2ccc(Cl)cc21 [HDYB-20]	26	22	
Cc1ccc(N2C(=O)C=CC2=O)cc1 [HDYB-21, 1-(p-tolyl)-1H-pyrrole-2,5-dione]	32	37	
O=C1C=CC(=O)N1c1ccc(I)cc1 [HDYB-22, 1-(4-iodophenyl)-1H-pyrrole-2,5-dione]	41	13	
O=C1C=CC(=O)N1c1ccc(-c2ccccc2)cc1 [HDYB-23, 1-([1,1′-biphenyl]-4-yl)-1H-pyrrole-2,5-dione]		68	EC50 (Human RBC; Homo sapiens, read-out: Anti-sickling activity (EC50; μM) Human RBC): 52 µM
O=C1C=CC(=O)N1c1cccc(F)c1 [HDYB-24, 1-(3-fluorophenyl)-1H-pyrrole-2,5-dione]	14	11	
O=C1C=CC(=O)N1c1cc(Cl)c(N2C(=O)C=CC2=O)cc1Cl [HDYB-25, 1,1′-(2,5-dichloro-1,4-phenylene)bis(1H-pyrrole-2,5-dione)]	12	10	
O=C1C=CC(=O)N1c1ccc2c(c1)CCO2 [HDYB-26, 1-(2,3-dihydrobenzofuran-5-yl)-1H-pyrrole-2,5-dione]	13	9	
O=C1OCc2ccc(N3C(=O)C=CC3=O)cc21 [HDYB-27, 1-(3-oxo-1,3-dihydroisobenzofuran-5-yl)-1H-pyrrole-2,5-dione]	11	10	
CC(C)CCNCC(O)Cn1c2ccc(Cl)cc2c2cc(Cl)ccc21 (stereo not shown) [SCAS2-A2, 1-(3,6-dichloro-9H-carbazol-9-yl)-3-(isopentylamino) propan-2-ol]			Anti-sickling activity (%, normalized to positive control of 5 mM 5-HMF) (RBCs; 10 uM): 21.45%; Anti-sickling activity (%, normalized to positive control of 5 mM 5-HMF) (RBCs; 33 uM): 25.26%; Anti-sickling activity (%, normalized to positive control of 5 mM 5-HMF) (RBCs; 100 uM): 213.95%
CC(C)CCNCC(O)Cn1c2ccc(Br)cc2c2cc(Br)ccc21 (stereo not shown) [SCAS2-A13, 1-(3,6-dibromo-9H-carbazol-9-yl)-3-(isopentylamino) propan-2-ol]			Anti-sickling activity (%, normalized to positive control of 5 mM 5-HMF) (RBCs; 10 uM): 71.04%; Anti-sickling activity (%, normalized to positive control of 5 mM 5-HMF) (RBCs; 33 uM): 90.158%; Anti-sickling activity (%, normalized to positive control of 5 mM 5-HMF) (RBCs; 100 uM): 35.39%
CCC(C)NCC(O)Cn1c2ccc(Cl)cc2c2cc(Cl)ccc21 (stereo not shown) [SCAS2-A14, 1-(sec-butylamino)-3-(3,6-dichloro-9H-carbazol-9-yl) propan-2-ol]			Anti-sickling activity (%, normalized to positive control of 5 mM 5-HMF) (RBCs; 10 uM): 24.26%; Anti-sickling activity (%, normalized to positive control of 5 mM 5-HMF) (RBCs; 33 uM): 78.71%; Anti-sickling activity (%, normalized to positive control of 5 mM 5-HMF) (RBCs; 100 uM): 131.87%
COc1ccc(Cl)cc1NC(=O)Nc1nc2c(s1)CN(S(=O)(=O)N(C)C)CC2 [SCAS2_01, 2-(3-(5-chloro-2-methoxyphenyl)ureido)-N,N-dimethyl-6,7-dihydrothiazolo[5,4-c]pyridine-5 (4H)-sulfonamide]			EC50 (RBCs): 1.1 µM
Nc1nc2ccc(S(=O)(=O)N3CCCCC3)cc2s1 [SCAS2_02, 6-(piperidin-1-ylsulfonyl)benzo[d]thiazol-2-amine]			EC50 (RBCs): 25.4 µM
COc1ccc(Cl)cc1NC(=O)Nc1nc2c(s1)CN(S(=O)(=O)C1CC1)CC2 [SCAS2_05, 1-(5-chloro-2-methoxyphenyl)-3-(5-(cyclopropylsulfonyl)-4,5,6,7-tetrahydrothiazolo[5,4-c]pyridin-2-yl)urea]			round shape morphology of RBCs (Human RBC; FIG. 2; 50 μM; compared to normoxic conditions and control drug 5 mM 5-HMF): fully restore round shape morphology; prevention of sickling of RBCs from sickle cells patients (Human RBC; FIG. 2; dose response): dose dependently prevent sickling; EC50 (RBCs): 2.25 µM
CC(C)(C)SCC(O)Cn1c2ccc(Cl)cc2c2cc(Cl)ccc21 (stereo not shown) [SCAS2_61, 1-(tert-butylthio)-3-(3,6-dichloro-9H-carbazol-9-yl) propan-2-ol]			EC50 (RBCs): 3.12 µM
